Data published in patent publication US5273985A, “Glycerin derivative and its pharmacological use” (Eisai Co., Ltd., priority 1988, dated 1993).

How the values were obtained:
[1] = target: T1, Human PAF Receptor (Homo sapiens, UniProt P25105); experiment: Human PAF receptor binding assay (3H-PAF, platelets); details: 3H-PAF 0.6 to 1 nM, 37° C., read-out: PAF receptor antagonism IC50
T1 construct: The platelets were sampled from healthy males by an ordinary method; endogenous in cells; host or cells: human platelets from healthy males (intact platelet suspension)
T1 sequence (P25105 whole entry): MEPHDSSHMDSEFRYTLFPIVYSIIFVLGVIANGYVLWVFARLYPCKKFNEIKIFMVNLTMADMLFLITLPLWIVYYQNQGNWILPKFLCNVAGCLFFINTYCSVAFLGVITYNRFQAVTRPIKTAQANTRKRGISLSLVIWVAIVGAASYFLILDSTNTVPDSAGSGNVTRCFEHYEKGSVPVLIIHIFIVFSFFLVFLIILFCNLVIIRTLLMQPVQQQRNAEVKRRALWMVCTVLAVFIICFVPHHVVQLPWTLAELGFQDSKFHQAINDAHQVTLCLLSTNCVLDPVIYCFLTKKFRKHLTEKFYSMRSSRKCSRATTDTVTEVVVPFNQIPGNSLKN
Experimental: Human PAF Receptor Binding Assay
The platelets were sampled from healthy males by an ordinary method and suspended in a binding buffer [10 mM phosphate-buffered saline (pH 7.0) containing 0.1 w/v % of BSA and 0.9 mM of CaCl2) to form a suspension having a concentration of 10^8 /460 μl. 20 μl of a solution of the test compound in the binding buffer was placed in a polypropylene tube and then 460 μl of the platelet suspension was added thereto. The mixture was subjected to a vortex treatment and then incubated at 37° C. for 6 min. 20 μl of a solution of ^3 H-PAF in the binding buffer (final ^3 H-PAF concentration: 0.6 to 1 nM) was added thereto and the mixture was incubated for 6 min. 3 ml of a washing solution (saline containing 0.1 w/v % of BSA) cooled with ice was added thereto to terminate the reaction. The reaction mixture was filtered by suction through a glass filter (Whatman GF/C). The glass filter was dried and the radioactivity thereof was determined with a liquid scintillation counter.
The inhibition % was calculated according to the following equation and IC50 so was determined by interpolation from the figure. [formula] wherein: total binding: dpm obtained when the concentration of the medicine or PAF is 0,
non-specific binding: dpm obtained when 10^-5 M of cold PAF was added.

[2] = tested on: blood pressure drop induced by PAF; experiment: Action on the blood pressure drop induced by PAF; type: in vivo, F344 rats; details: Rattus norvegicus, iv, 0.05 h; 0.01 mg/kg, i.v., three minutes after 0.5 μg/kg PAF; ratio of blood pressure rise to drop; read-out: Recovery rate
Experimental: Action on the Blood Pressure Drop Induced by […]
Cannulae were inserted into the carotid and the jugular of each of F344 rats anesthetized with Pento (50 mg/kg, i. p.). The blood pressure was determined at the carotid and 0.5 ml/kg of PAF or the test compound was given through the jugular. Three minutes after the injection of 0.5 μg/kg of PAF, the test compound was given and the antagonism thereof was evaluated.
The recovery rate shown in Table 4 is the ratio of the blood pressure rise by the test compound to the drop thereof.

[3] = Determination of stability in aqueous solution; type: physicochemical; details: pH 7.4, 37° C., 0.5M sodium phosphate; read-out: Half-value period of disappearance due to hydrolysis (t1/2) (converted)
Experimental: Determination of Stability in Aqueous Solution
These compounds were unstable in a neutral or alkaline aqueous solution mainly due to the hydrolysis reaction of the N-acetyl or N-benzoyl group. The relationships between the pH and decomposition rate of several compounds were examined to find that they have the same pattern. The decomposition rate constant under conditions (pH 7.4, 37° C.) where they were relatively easily decomposed was determined and the stabilities of the compounds were compared with one another.
9 parts by volume of a buffer solution (0.5M sodium phosphate, pH 7.4) was added to 1 part by volume of an aqueous sample solution (1 mg/ml) and the mixture was kept at 37° C. The sampling was conducted at appropriate time intervals and the residual rate of an unreacted compound was determined by reversed phase high-performance liquid chromatography. Since the decomposition rate of most of the compounds can be approximately represented by the first-order decomposition rate equation, the decomposition rate constant was determined by the least squares method.

[4] = tested on: lethal activity of PAF; experiment: Preventive effect against the lethal activity of PAF; type: in vivo, ICR male mice; details: 15 minutes before PAF i.v.; for number of dead mice / number of mice (Survival rate): after one hour; for Survival rate: survival after one hour
Experimental: Preventive Effect Against the Lethal Activity of PAF:
A physiological saline or the test compound was given to ICR male mice weighing around 30 g by intravenous injection. After 15 minutes, 100 wg/kg of PAF was given to them by intravenous injection. Life and death of them were examined after one hour and the survival rate was determined.
The survival rate is given by percentage. The denominator of the fraction
is the number of the mice and the numerator is the number of the dead

[5] = tested on: platelet agglutination caused by PAF; experiment: Inhibition of platelet agglutination caused by human PAF (platelet-rich plasma, optical method of Born); type: cell-based; details: PAF at minimum concentration for maximum agglutination, read-out: Agglutination inhibiting activity IC50
Experimental: Effect on the Agglutination Caused by Human PAF
One part by volume of a 3.8% sodium citrate solution was added to 9 parts by volume of blood sampled from the forearm of a healthy adult to whom had been administered no medicine for at least two weeks. A platelet-rich plasma (PRP) was prepared by centrifugation. The inhibition of the platelet agglutination was determined by an optical method of Born et al. with a Hematolaser II® (a platelet agglutination meter of Niko Bioscience Co.). PAF was dissolved in Tyrode solution [Ca^++ (+)] to form a solution having the minimum concentration for causing the maximum agglutination. The test compound was dissolved in a physiological saline.
The agglutination inhibiting activity of the test compound was determined from the rate of inhibition of the maximum light transmittance (maximum agglutination rate) caused by PAF in control PRP. IC50 was determined from the inhibition curve.
The numeral in the column of the Test compound in Table 1 refers to the Example number of the compound.

Compound | IC50 [1] | inhibition in vivo at 0.01 mg/kg [2] | half-life [3] | number of dead mice / number of mice (Survival rate) ([4]; 0.03 mg/kg i.v.) | Survival rate ([4]; 0.03 mg/kg i.v.) | number of dead mice / number of mice (Survival rate) ([4]; 0.1 mg/kg i.v.) | Survival rate ([4]; 0.1 mg/kg i.v.) | number of dead mice / number of mice (Survival rate) ([4]; 0.3 mg/kg i.v.) | Survival rate ([4]; 0.3 mg/kg i.v.) | IC50 [5]
CCCCCCCCCCCCCCCCCCNS(=O)(=O)c1ccc(CNC(=O)OCC(COC(=O)N(Cc2cccc[n+]2CC)C(=O)c2ccccc2OC)OC)cc1 (stereo not shown) [Example 13, 1-Ethyl-2-[N-(2-methoxy)benzoyl-N-{2-methoxy-3-(4-octadecylsulfamoyl)benzylcarbamoyloxypropyloxy}carbonyl]aminomethylpyridinium chloride] | 0.25 nM | 89.7% | 21.5 h | 3/7 | 57.1% | 0/7 | 100% | 0/7 | 100% | 72 nM
CCCCCCCCCCCCCCCCCCNC(=O)OCCCNC(=O)OCC(COC(=O)N(Cc1cccc[n+]1CC)C(=O)c1ccccc1OC)OC (stereo not shown) [Example 14, 1-Ethyl-2-[N-(2-methoxy)benzoyl-N-{2-methoxy-3-(3-octadecylcarbamoyloxy)propylcarbamoyloxy}propoxycarbonyl]aminomethylpyridinium chloride] | 0.19 nM | 96.8% | 26.1 h | – | – | – | – | – | – | 44 nM
CCCCCCCCCCCCCCCCCCNC(=O)OC1CCN(C(=O)OCC(COC(=O)N(Cc2cccc[n+]2CC)C(=O)c2ccccc2OC)OC)CC1 (stereo not shown) [Example 15, 1-Ethyl-2-[N-(2-methoxy)benzoyl-N-{2-methoxy-3-(4-octadecylcarbamoyloxy)piperidinocarbonyloxypropyloxyl}carbonyl]aminomethylpyridinium chloride] | 0.19 nM | 94.6% | 24.4 h | 2/7 | 71.4% | 3/7 | 57.1% | 0/7 | 100% | 80 nM
CCCCCCCCCCCCCCCCCCOc1c(OC)cc(COCC(COC(=O)N(Cc2cccc[n+]2CC)C(=O)c2ccccc2OC)OC)cc1OC (stereo not shown) [Example 18, 1-ethyl-2-(((N-((3,5-dimethoxy-4-octadecyloxy)benzyloxy-2-methoxypropyloxy))carbonyl-N-(2-methoxy)benzoyl))) aminomethyl pyridinium chloride] | 0.71 nM | 74.1% | 37.7 h | – | – | – | – | – | – | 660 nM
